# Source: PubChem BioAssay (NCI)
#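 96-well plates; 48 h exposure; 5 concentrations. Endpoints by linear interpolation between flanking doses. Not reached: highest tested concentration assigned. Abbreviation: GI50, concentration required for 50% inhibition of growth. TGI marks complete inhibition of growth.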
# Key:
# Assay in all cases: NCI tumour cell line growth inhibition, 48 h
# [1] = system: LOX IMVI melanoma
# [2] = system: A498 renal
# [3] = system: M14 melanoma
# [4] = system: UO-31 renal
# [5] = system: HCT-15 colon
# [6] = system: OVCAR-5 ovarian
# [7] = system: SF-539 CNS
# [8] = system: KM12 colon
# [9] = system: HL-60(TB) leukemia
# [10] = system: HOP-62 NSCLC
# [11] = system: MDA-N
# [12] = system: SR leukemia
# [13] = system: A549 NSCLC
# [14] = system: SNB-19 CNS
# [15] = system: SK-MEL-5 melanoma
# [16] = system: TK-10 renal
# [17] = system: RPMI-8226 leukemia
# [18] = system: IGROV1 ovarian
# [19] = system: SNB-75 CNS
# [20] = system: HS 578T breast
# [21] = system: NCI-H226 lung
# [22] = system: HCT-116 colon
# [23] = system: U251 CNS
# [24] = system: MDA-MB-435
# [25] = system: MOLT-4 leukemia
# [26] = system: OVCAR-3 ovarian
# [27] = system: UACC-62 melanoma
# [28] = system: NCI-H23 lung
# [29] = system: NCI-H522 lung
# [30] = system: SK-MEL-28 melanoma
# [31] = system: SF-295 CNS
# [32] = system: K-562 leukemia
# [33] = system: SW-620 colon
# [34] = system: COLO 205 colon
# [35] = system: SN12C renal
# [36] = system: MALME-3M melanoma
# [37] = system: HOP-92 NSCLC
# [38] = system: SK-MEL-2 melanoma
# [39] = system: CCRF-CEM leukemia
# [40] = system: OVCAR-8 ovarian
# [41] = system: MCF7 breast
# [42] = system: EKVX NSCLC
# [43] = system: SK-OV-3 ovarian
# [44] = system: SF-268 CNS
# [45] = system: NCI/ADR-RES ovarian
# [46] = system: RXF 393 renal
# [47] = system: PC-3 prostate
# [48] = system: CAKI-1 renal
# [49] = system: MDA-MB-231 breast
# [50] = system: NCI-H460 lung
# [51] = system: DU-145 prostate
# [52] = system: 786-0 renal
# [53] = system: HT29 colon
# [54] = system: UACC-257 melanoma
# [55] = system: ACHN renal
# [56] = system: OVCAR-4 ovarian
# [57] = system: HCC-2998 colon
# [58] = system: BT-549 breast
# [59] = system: T-47D breast
smiles,measurement,setting,value
C=CCC(CC=O)(C(=O)OCC)C(=O)OCC,TGI,[1],> 100 µM
same,TGI,[2],> 100 µM
same,TGI,[3],> 100 µM
same,TGI,[4],> 100 µM
same,TGI,[5],> 100 µM
same,TGI,[6],> 100 µM
same,TGI,[7],> 100 µM
same,TGI,[8],> 100 µM
same,TGI,[9],> 100 µM
same,TGI,[10],> 100 µM
same,TGI,[11],> 100 µM
same,TGI,[12],> 100 µM
same,TGI,[13],> 100 µM
same,TGI,[14],> 100 µM
same,TGI,[15],> 100 µM
same,TGI,[16],> 100 µM
same,TGI,[17],> 100 µM
same,TGI,[18],> 100 µM
same,TGI,[19],> 100 µM
same,TGI,[20],> 100 µM
same,TGI,[21],> 100 µM
same,TGI,[22],> 100 µM
same,TGI,[23],> 100 µM
same,TGI,[24],> 100 µM
same,TGI,[25],> 100 µM
same,TGI,[26],> 100 µM
same,TGI,[27],> 100 µM
same,TGI,[28],> 100 µM
same,TGI,[29],> 100 µM
same,TGI,[30],> 100 µM
same,TGI,[31],> 100 µM
same,TGI,[32],> 100 µM
same,TGI,[33],> 100 µM
same,TGI,[34],> 100 µM
same,TGI,[35],> 100 µM
same,TGI,[36],> 100 µM
same,TGI,[37],> 100 µM
same,TGI,[38],> 100 µM
same,TGI,[39],> 100 µM
same,TGI,[40],> 100 µM
same,TGI,[41],> 100 µM
same,TGI,[42],> 100 µM
same,TGI,[43],> 100 µM
same,TGI,[44],> 100 µM
same,TGI,[45],> 100 µM
same,TGI,[46],> 100 µM
same,TGI,[47],> 100 µM
same,TGI,[48],> 100 µM
same,TGI,[49],> 100 µM
same,TGI,[50],> 100 µM
same,TGI,[51],> 100 µM
same,TGI,[52],> 100 µM
same,TGI,[53],> 100 µM
same,TGI,[54],> 100 µM
same,TGI,[55],> 100 µM
same,TGI,[56],> 100 µM
NC(N)=NC(P(=O)(O)O)P(=O)(O)O,TGI,[1],> 100 µM
same,TGI,[3],> 100 µM
same,TGI,[4],> 100 µM
same,TGI,[5],> 100 µM
same,TGI,[6],> 100 µM
same,TGI,[7],> 100 µM
same,TGI,[8],> 100 µM
same,TGI,[57],> 100 µM
same,TGI,[10],> 100 µM
same,TGI,[11],> 100 µM
same,TGI,[13],> 100 µM
same,TGI,[14],> 100 µM
same,TGI,[15],> 100 µM
same,TGI,[16],> 100 µM
same,TGI,[58],> 100 µM
same,TGI,[18],> 100 µM
same,TGI,[20],> 100 µM
same,TGI,[21],> 100 µM
same,TGI,[22],> 100 µM
same,TGI,[26],> 100 µM
same,TGI,[27],> 100 µM
same,TGI,[28],> 100 µM
same,TGI,[29],> 100 µM
same,TGI,[31],> 100 µM
same,TGI,[34],> 100 µM
same,TGI,[36],> 100 µM
same,TGI,[41],> 100 µM
same,TGI,[42],> 100 µM
same,TGI,[43],> 100 µM
same,TGI,[44],> 100 µM
same,TGI,[45],> 100 µM
same,TGI,[46],> 100 µM
same,TGI,[47],> 100 µM
same,TGI,[48],> 100 µM
same,TGI,[49],> 100 µM
same,TGI,[50],> 100 µM
same,TGI,[51],> 100 µM
same,TGI,[52],> 100 µM
same,TGI,[54],> 100 µM
same,TGI,[55],> 100 µM
COc1cc2nccc(Oc3ccc(NC(=O)C4(C(=O)Nc5ccc(F)cc5)CC4)cc3)c2cc1Oc1ccc(N)cn1,GI50,[1],1.75 µM
same,TGI,[1],3.49 µM
same,GI50,[2],1.6 µM
same,TGI,[2],4.33 µM
same,GI50,[3],2.66 µM
same,TGI,[3],34.8 µM
same,GI50,[4],2.36 µM
same,TGI,[4],9.32 µM
same,GI50,[5],3.04 µM
same,TGI,[5],> 100 µM
same,GI50,[6],2.49 µM
same,TGI,[6],39 µM
same,GI50,[7],0.854 µM
same,TGI,[7],4.84 µM
same,GI50,[8],0.0442 µM
same,TGI,[8],3.1 µM
same,GI50,[9],2.26 µM
same,TGI,[9],5.23 µM
same,GI50,[57],2.58 µM
same,TGI,[57],7.49 µM
same,GI50,[10],2.83 µM
same,TGI,[10],84.3 µM
same,GI50,[12],3.25 µM
same,TGI,[12],> 100 µM
same,GI50,[13],2.38 µM
same,TGI,[13],9.05 µM
same,GI50,[14],4.49 µM
same,TGI,[14],> 100 µM
same,GI50,[15],2.03 µM
same,TGI,[15],4.43 µM
same,GI50,[16],3.65 µM
same,TGI,[16],> 100 µM
same,GI50,[58],3.8 µM
same,TGI,[58],> 100 µM
same,GI50,[17],3.99 µM
same,TGI,[17],78.6 µM
same,GI50,[18],1.36 µM
same,TGI,[18],3.94 µM
same,GI50,[19],1.41 µM
same,TGI,[19],4.21 µM
same,GI50,[59],1.91 µM
same,TGI,[59],9.91 µM
same,GI50,[20],1.65 µM
same,TGI,[20],7.39 µM
same,GI50,[21],1.5 µM
same,TGI,[21],9.07 µM
same,GI50,[22],3.33 µM
same,TGI,[22],> 100 µM
same,GI50,[23],2.82 µM
same,TGI,[23],16.6 µM
same,GI50,[24],1.83 µM
same,TGI,[24],6.1 µM
same,GI50,[25],3.12 µM
same,TGI,[25],> 100 µM
same,GI50,[26],3.68 µM
same,TGI,[26],> 100 µM
same,GI50,[27],1.33 µM
same,TGI,[27],7.03 µM
same,GI50,[28],2.57 µM
same,TGI,[28],> 100 µM
same,GI50,[29],2.25 µM
same,TGI,[29],12.7 µM
same,GI50,[30],2.56 µM
same,TGI,[30],32 µM
same,GI50,[31],0.254 µM
same,TGI,[31],4.28 µM
same,GI50,[32],0.9 µM
same,TGI,[32],> 100 µM
same,GI50,[33],2.57 µM
same,TGI,[33],> 100 µM
same,GI50,[34],2.13 µM
same,TGI,[34],5.64 µM
same,GI50,[35],1.1 µM
same,TGI,[35],> 100 µM
same,GI50,[36],2.09 µM
same,TGI,[36],8.52 µM
same,GI50,[37],0.0492 µM
same,TGI,[37],3.03 µM
same,GI50,[38],2.5 µM
same,TGI,[38],6.52 µM
same,GI50,[39],3.95 µM
same,TGI,[39],> 100 µM
same,GI50,[40],3.77 µM
same,TGI,[40],> 100 µM
same,GI50,[41],2.28 µM
same,TGI,[41],> 100 µM
same,GI50,[42],3.21 µM
same,TGI,[42],> 100 µM
same,GI50,[43],3.52 µM
same,TGI,[43],> 100 µM
same,GI50,[44],3.11 µM
same,TGI,[44],> 100 µM
same,GI50,[45],3.83 µM
same,TGI,[45],> 100 µM
same,GI50,[46],1.72 µM
same,TGI,[46],4.72 µM
same,GI50,[47],3.12 µM
same,TGI,[47],> 100 µM
same,GI50,[48],1.85 µM
same,TGI,[48],5.48 µM
same,GI50,[49],2.44 µM
same,TGI,[49],8.42 µM
same,GI50,[50],3.26 µM
same,TGI,[50],18.7 µM
same,GI50,[51],4.5 µM
same,TGI,[51],> 100 µM
same,GI50,[52],3.6 µM
same,TGI,[52],94.7 µM
same,GI50,[53],1.92 µM
same,TGI,[53],7.6 µM
same,GI50,[54],2.74 µM
same,TGI,[54],51.3 µM
same,GI50,[55],2.76 µM
same,TGI,[55],10.2 µM
same,GI50,[56],3.73 µM
same,TGI,[56],> 100 µM
